The values that follow come from patent US20230355517A1, “USE OF ACTIVE SUBSTANCES WITH ANTIVIRAL, ANTI MALARIAL, AND/OR MUCOLYTIC PROPERTIES IN THE TREATMENT OF VIRAL LUNG DISEASES INCLUDING COVID-19 BY SOFT MIST INHALER OR VIBRATION MESH TECHNOLOGY NEBULIZER THROUGH INHALATION ROUTE” (ATANBUL UNIVERSITESI REKTOLUGU, priority 2020, published 2023).

Structures are written as SMILES.

The nature of data set [1]: pH analysis of compositions containing favipiravir. In kind it is physicochemical. The method, then:
In the present invention, pH analysis was performed for the composition containing favipiravir. […] When it is formulated with phosphate buffer, pH values thereof approach 7,4. Therefore, in consideration of all combinations, the pH interval for the formulations was kept in the range of 3.5-8.0.

For another data set, the system named is lung tissue. Further details: species or system rats. As to conditions: rat, in vivo.
Data set [2] is classed as physicochemical. As to conditions: pH 7.4. The method, then: In the present invention, a study for solubility of favipiravir active substance was conducted.

`NC(=O)c1nc(F)c[nH]c1=O` [favipiravir]: the pH values in data set [1] (formulated with phosphate buffer) is ~7,4. Further, in data set [1] (in combinations of physiological saline, half physiological saline, and HP-β-cyclodextrin), the “smallest pH value” is given as 3.56-3.62. In the data set on lung tissue, the “histological damage scores of the lungs (H&E)” value is listed as “not statistically different” and the “lung histology under light microscopy” value is on record as “Normal lung histology”. For the same compound, the solubility result in data set [2] was “further increased”.
